Test results taken from the NIST ThermoML archive (doi:10.1021/je100835n).
Numbers after ± are expanded uncertainties.

Conditions: Liquid, Gas chromatography

vapor or sublimation pressure (308.15 K) [kPa] | vapor or sublimation pressure (318.15 K) [kPa] | vapor or sublimation pressure (328.15 K) [kPa] | vapor or sublimation pressure (338.15 K) [kPa] | vapor or sublimation pressure (348.15 K) [kPa] | vapor or sublimation pressure (358.15 K) [kPa] | vapor or sublimation pressure (368.15 K) [kPa] | vapor or sublimation pressure (378.15 K) [kPa] | vapor or sublimation pressure (388.15 K) [kPa] | vapor or sublimation pressure (398.15 K) [kPa] | vapor or sublimation pressure (408.15 K) [kPa] | vapor or sublimation pressure (418.15 K) [kPa] | vapor or sublimation pressure (428.15 K) [kPa] | vapor or sublimation pressure (438.15 K) [kPa] | SMILES
0.04458 ± 0.0095 | 0.09293 ± 0.02 | 0.1853 ± 0.039 | 0.3545 ± 0.075 | 0.6537 ± 0.14 | 1.165 ± 0.25 | 2.011 ± 0.43 |  |  |  |  |  |  |  | C[Si]1(C)O[Si](C)(C)O[Si](C)(C)O[Si](C)(C)O[Si](C)(C)O1 [decamethylcyclopentasiloxane]
 |  |  |  |  |  | 0.0007152 ± 0.00015 | 0.001861 ± 0.00039 | 0.00461 ± 0.00098 | 0.01091 ± 0.0023 | 0.02475 ± 0.0053 | 0.054 ± 0.011 | 0.1136 ± 0.024 | 0.231 ± 0.049 | C[Si](C)(C)O[Si](C)(C)O[Si](C)(C)O[Si](C)(C)O[Si](C)(C)O[Si](C)(C)O[Si](C)(C)O[Si](C)(C)O[Si](C)(C)O[Si](C)(C)C [docosamethyldecasiloxane]
 |  |  | 0.04948 ± 0.01 | 0.09584 ± 0.02 | 0.1789 ± 0.038 | 0.3228 ± 0.069 | 0.5646 ± 0.12 | 0.9595 ± 0.2 | 1.588 ± 0.34 | 2.563 ± 0.54 | 4.044 ± 0.86 |  |  | C[Si]1(C)O[Si](C)(C)O[Si](C)(C)O[Si](C)(C)O[Si](C)(C)O[Si](C)(C)O1 [dodecamethylcyclohexasiloxane]
 |  |  | 0.09498 ± 0.02 | 0.1719 ± 0.036 | 0.3011 ± 0.064 | 0.5114 ± 0.11 | 0.8448 ± 0.18 | 1.36 ± 0.29 | 2.137 ± 0.45 | 3.284 ± 0.7 |  |  |  | C[Si](C)(C)O[Si](C)(C)O[Si](C)(C)O[Si](C)(C)O[Si](C)(C)C [dodecamethylpentasiloxane]
 |  |  |  | 0.0004156 ± 8.8e-05 | 0.001098 ± 0.00023 | 0.002752 ± 0.00058 | 0.006569 ± 0.0014 | 0.015 ± 0.0032 | 0.03284 ± 0.007 | 0.0692 ± 0.015 | 0.1407 ± 0.03 | 0.2769 ± 0.059 | 0.5281 ± 0.11 | C[Si](C)(C)O[Si](C)(C)O[Si](C)(C)O[Si](C)(C)O[Si](C)(C)O[Si](C)(C)O[Si](C)(C)O[Si](C)(C)O[Si](C)(C)C [eicosamethylnonasiloxane]
 |  |  |  |  |  |  |  | 0.0004593 ± 9.7e-05 | 0.001256 ± 0.00027 | 0.00327 ± 0.00069 | 0.008134 ± 0.0017 | 0.01939 ± 0.0041 | 0.04441 ± 0.0094 | C[Si](C)(C)O[Si](C)(C)O[Si](C)(C)O[Si](C)(C)O[Si](C)(C)O[Si](C)(C)O[Si](C)(C)O[Si](C)(C)O[Si](C)(C)O[Si](C)(C)O[Si](C)(C)O[Si](C)(C)C [hexacosamethyldodecasiloxane]
 |  |  | 0.002101 ± 0.00045 | 0.004912 ± 0.001 | 0.01095 ± 0.0023 | 0.02337 ± 0.005 | 0.04791 ± 0.01 | 0.09466 ± 0.02 | 0.1807 ± 0.038 | 0.3344 ± 0.071 | 0.6006 ± 0.13 |  |  | C[Si]1(C)O[Si](C)(C)O[Si](C)(C)O[Si](C)(C)O[Si](C)(C)O[Si](C)(C)O[Si](C)(C)O[Si](C)(C)O1 [hexadecamethylcyclooctasiloxane]
 |  |  | 0.003586 ± 0.00076 | 0.008232 ± 0.0017 | 0.01804 ± 0.0038 | 0.03789 ± 0.008 | 0.07651 ± 0.016 | 0.149 ± 0.032 | 0.2806 ± 0.06 | 0.5124 ± 0.11 | 0.909 ± 0.19 | 1.57 ± 0.33 | 2.645 ± 0.56 | C[Si](C)(C)O[Si](C)(C)O[Si](C)(C)O[Si](C)(C)O[Si](C)(C)O[Si](C)(C)O[Si](C)(C)C [hexadecamethylheptasiloxane]
 |  |  |  |  | 0.0008201 ± 0.00017 | 0.002003 ± 0.00042 | 0.004666 ± 0.00099 | 0.01041 ± 0.0022 | 0.02229 ± 0.0047 | 0.046 ± 0.0098 | 0.09169 ± 0.019 |  |  | C[Si]1(C)O[Si](C)(C)O[Si](C)(C)O[Si](C)(C)O[Si](C)(C)O[Si](C)(C)O[Si](C)(C)O[Si](C)(C)O[Si](C)(C)O[Si](C)(C)O1 [icosamethylcyclodecasiloxane]
 |  |  |  |  |  |  |  |  | 0.0004326 ± 9.2e-05 | 0.001205 ± 0.00026 | 0.003194 ± 0.00068 | 0.008092 ± 0.0017 | 0.01965 ± 0.0042 | C[Si](C)(C)O[Si](C)(C)O[Si](C)(C)O[Si](C)(C)O[Si](C)(C)O[Si](C)(C)O[Si](C)(C)O[Si](C)(C)O[Si](C)(C)O[Si](C)(C)O[Si](C)(C)O[Si](C)(C)O[Si](C)(C)C [octacosamethyltridecasiloxane]
 |  |  | 0.0004734 ± 0.0001 | 0.0012 ± 0.00025 | 0.002888 ± 0.00061 | 0.006628 ± 0.0014 | 0.01455 ± 0.0031 | 0.03069 ± 0.0065 | 0.06234 ± 0.013 | 0.1223 ± 0.026 | 0.2323 ± 0.049 |  |  | C[Si]1(C)O[Si](C)(C)O[Si](C)(C)O[Si](C)(C)O[Si](C)(C)O[Si](C)(C)O[Si](C)(C)O[Si](C)(C)O[Si](C)(C)O1 [octadecamethylcyclononasiloxane]
 |  |  | 0.0007271 ± 0.00015 | 0.001846 ± 0.00039 | 0.004449 ± 0.00094 | 0.01022 ± 0.0022 | 0.02248 ± 0.0048 | 0.04747 ± 0.01 | 0.09653 ± 0.02 | 0.1896 ± 0.04 | 0.3605 ± 0.077 | 0.6654 ± 0.14 | 1.194 ± 0.25 | C[Si](C)(C)O[Si](C)(C)O[Si](C)(C)O[Si](C)(C)O[Si](C)(C)O[Si](C)(C)O[Si](C)(C)O[Si](C)(C)C [octadecamethyloctasiloxane]
0.2359 ± 0.05 | 0.4269 ± 0.091 | 0.7452 ± 0.16 | 1.259 ± 0.27 | 2.063 ± 0.44 | 3.289 ± 0.7 | 5.113 ± 1.1 |  |  |  |  |  |  |  | C[Si]1(C)O[Si](C)(C)O[Si](C)(C)O[Si](C)(C)O1 [octamethylcyclotetrasiloxane]
 |  |  |  |  |  |  | 0.0005391 ± 0.00011 | 0.001446 ± 0.00031 | 0.003689 ± 0.00078 | 0.008993 ± 0.0019 | 0.02101 ± 0.0045 | 0.04716 ± 0.01 | 0.102 ± 0.022 | C[Si](C)(C)O[Si](C)(C)O[Si](C)(C)O[Si](C)(C)O[Si](C)(C)O[Si](C)(C)O[Si](C)(C)O[Si](C)(C)O[Si](C)(C)O[Si](C)(C)O[Si](C)(C)C [tetracosamethylundecasiloxane]
 |  |  | 0.01 ± 0.0021 | 0.0213 ± 0.0045 | 0.04349 ± 0.0092 | 0.08542 ± 0.018 | 0.1619 ± 0.034 | 0.2968 ± 0.063 | 0.528 ± 0.11 | 0.9129 ± 0.19 | 1.538 ± 0.33 |  |  | C[Si]1(C)O[Si](C)(C)O[Si](C)(C)O[Si](C)(C)O[Si](C)(C)O[Si](C)(C)O[Si](C)(C)O1 [tetradecamethylcycloheptasiloxane]
 |  |  | 0.01845 ± 0.0039 | 0.03767 ± 0.008 | 0.07392 ± 0.016 | 0.1398 ± 0.03 | 0.2557 ± 0.054 | 0.4533 ± 0.096 | 0.7809 ± 0.17 | 1.31 ± 0.28 | 2.143 ± 0.45 | 3.427 ± 0.73 | 5.364 ± 1.1 | C[Si](C)(C)O[Si](C)(C)O[Si](C)(C)O[Si](C)(C)O[Si](C)(C)O[Si](C)(C)C [tetradecamethylhexasiloxane]
